Experimental findings from PMC9184693, “Molecular mechanism of interaction between fatty acid delta 6 desaturase and acyl-CoA by computational prediction” (AMB Express, 2022) are described below.

This experiment has as its target T1, MpFADS6 (Micromonas pusilla delta 6 desaturase) (Micromonas pusilla, UniProt C1MMV2).
T1 construct: gene MICPUCDRAFT_32578; pYES2-MpFADS6 expressed in Saccharomyces cerevisiae INVSc1; membrane protein, whole-cell biotransformation
Nature of the experiment: whole-cell biotransformation in yeast, GC-MS of fatty acid methyl esters. Conditions: product from 0.25 mM ALA fed to cells; formed as the acyl-CoA. It counts as cell-based.

T1 sequence (C1MMV2 entry or part of it): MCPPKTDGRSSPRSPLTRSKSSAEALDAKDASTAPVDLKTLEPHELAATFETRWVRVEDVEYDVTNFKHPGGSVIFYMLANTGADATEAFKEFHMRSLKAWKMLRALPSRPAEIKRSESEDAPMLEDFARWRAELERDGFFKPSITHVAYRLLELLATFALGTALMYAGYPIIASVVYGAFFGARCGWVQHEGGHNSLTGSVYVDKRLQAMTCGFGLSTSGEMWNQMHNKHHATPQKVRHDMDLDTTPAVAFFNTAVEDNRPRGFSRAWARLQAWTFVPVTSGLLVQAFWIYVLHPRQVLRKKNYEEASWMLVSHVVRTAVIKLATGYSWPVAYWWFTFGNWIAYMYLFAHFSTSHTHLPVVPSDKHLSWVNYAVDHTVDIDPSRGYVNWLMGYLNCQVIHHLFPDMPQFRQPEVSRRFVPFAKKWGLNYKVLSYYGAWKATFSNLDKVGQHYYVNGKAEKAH

In the case of `CC/C=C\C/C=C\C/C=C\C/C=C\CCCCC(=O)O` [stearidonic acid], the “whole-cell biotransformation in yeast, GC-MS of fatty acid methyl esters” value is “Desaturase activity is represented by the conversion rate of ALA to SDA”.
